From patent publication US20080090788A1, “Chemical Compounds” (priority 2005, published 2008)

Columns and labels:
ARH77 cells = type: cell-based; conditions: human, 4 days, 2 mM
Description: To determine the growth inhibitory effects of compounds 2a, SPY, 2c, 2d, ARH77 cells (2×10^4 cells in 100 μl in each well of a 96 well plate) were incubated with each compound or an equivalent amount of DMSO. Four days later, cell growth was determined using the Aqueous One Solution Cell Proliferation Assay (MTS) (Promega) according to the manufacturer's instructions. Each determination was made in triplicate. Relative cell growth was determined by subtracting the absorbance of wells containing medium and lacking cells, and dividing by absorbance values derived from cells treated with an equivalent volume of DMSO.
Reduction of SFZ in the gut to give SPY is thought to be responsible for much of the toxicity associated with therapy. The putative reduction products of the novel SFZ derivatives were associated with increased or decreased toxicity was investigated. ARH77 cells were treated for 4 days with compounds 2a (i.e., putative reduction product of 3a and 3b), 2c (putative reduction product of 3d), and 2d (putative reduction product of 3e and 3f), and SPY (reduction product of SFZ and 3c). Cell growth was determined using an MTS assay. The percent growth inhibition at 2 mM (FIG. 6) was measured. […] Cytotoxicity of 2a and 2c was slightly less than SPY with 27±8% and 24±3% growth inhibition, respectively. 2d was essentially non-toxic in this assay with −6±16% growth inhibition. The ability of compounds 2a, 2c and 2d to interfere with NF-kB activity in LPS treated U937-kBluc cells was also tested.
ARH77 cells were incubated with 2 mM of 2a, 2c, 2d, SPY or DMSO as a solvent control. After 4 days, cell growth was determined using an MTS assay. Percentage growth inhibition for each compound relative to DMSO treated cells was determined. Mean growth inhibition is shown (±SD). Data are derived from two separate experiments, each performed in triplicate.

NF-kB = NF-kB luciferase reporter activity in LPS-stimulated U937-kBluc cells; type: cell-based, human; conditions: for average luciferase activity, % of the activity in DMSO treated cells: 2 mM, ±SD; for IC50: Homo sapiens, U937-kBluc cells, LPS 0.3 μg/ml, 6 hours, mean of duplicate determinations ±SD, read-out: IC50 for inhibition of LPS-induced NF-kB activity
Description: U937-kBluc cells were cultured in a 96 well plate (2×10^4 cells in 100 μl in each well) and stimulated with 0.3 μg/ml LPS (lipopolysaccaride; Sigma Aldrich). After 6 hours, cells were collected and luciferase activity determined using the luclite reagent (Perkin Elmer UK, Beaconsfield, UK) and a Packard TopCount (Perkin Elmer), as described by the manufacturer. To determine the effect of SFZ and analogues, various concentrations of each compound or an equivalent amount of DMSO as a solvent control were added 1 hour prior to addition of LPS. Each determination was made in triplicate. A cell line containing an NF-kB reporter construct was used to determine the effects of SFZ analogues on NF-kB activity. Cells were treated with LPS to induce NF-kB activity in the presence or absence of each compound, or DMSO as a solvent control, and luciferase activity analysed as a measure of NF-kB dependent transcription (FIG. 1). […] U937-kBluc cells were treated with LPS to activate NF-kB in the presence of increasing concentrations of SFZ, derivatives (3a-f), or DMSO as a solvent control. For each concentration of compound, the percentage inhibition of luciferase activity relative to cells treated with an equivalent amount of DMSO was calculated. (A) Representative dose response experiment (♦, 3a; ▪, SFZ). Each data point is the mean of triplicate samples (±SEM). (B) Detailed dose response assays were performed for compounds which gave >50% inhibition at 2 mM. The mean IC50 value (±SD) for inhibition of LPS-induced NF-kB activity is derived from 2 independent experiments, each performed in triplicate.

Structure (SMILES) | percent growth inhibition (ARH77 cells) | average luciferase activity, % of the activity in DMSO treated cells (NF-kB) | IC50 (NF-kB)
COc1ccc(CNS(=O)(=O)c2ccc(N)cc2)cc1 [Compound 2a, N-(p-methoxybenzyl)-4-aminobenzenesulfonamide] | 27±8% | – | –
CNS(=O)(=O)c1ccc(N)cc1 [Compound 2c] | 24±3% | – | –
Nc1ccc(S(=O)(=O)NCc2ccc(C(F)(F)F)cc2)cc1 [Compound 2d] | −6±16% | – | –
COc1ccc(CNS(=O)(=O)c2ccc(/N=N/c3ccc(O)cc3)cc2)cc1 [Compound 3b] | – | 87.5±3.3% | > 2000 µM
Cc1cc(/N=N/c2ccc(S(=O)(=O)Nc3ccccn3)cc2)cc(C(=O)O)c1O [Compound 3c, 2-hydroxy-3-methyl-5-[4-(pyridin-2-ylsulfamoyl)-phenylazo]benzoic acid] | – | – | 1100 ± 40 µM
CNS(=O)(=O)c1ccc(/N=N/c2ccc(O)c(C(=O)O)c2)cc1 [Compound 3d, 2-hydroxy-5-(4-methylsulfamoyl-phenylazo)-benzoic acid] | – | – | 1240 ± 106 µM
Nc1ccc(O)c(C(=O)O)c1 [Compound 5-ASA, 5-amino salicylic acid, reference compound] | – | 121±32% | > 2000 µM
Nc1ccc(S(=O)(=O)Nc2ccccn2)cc1 [SPY, sulfapyridine, reference compound] | – | 151±71% | > 2000 µM
